Experiments:
ALDH2 isozyme = target: T1, ALDH2 isozyme (Homo sapiens, UniProt P05091); assay: ALDH2 enzymatic activity, spectrophotometric NAD+ to NADH assay; assay type: biochemical; details: 40 uM
T1 construct: made in house; host or cells: BL21 E. coli
T1 sequence (P05091 18-517): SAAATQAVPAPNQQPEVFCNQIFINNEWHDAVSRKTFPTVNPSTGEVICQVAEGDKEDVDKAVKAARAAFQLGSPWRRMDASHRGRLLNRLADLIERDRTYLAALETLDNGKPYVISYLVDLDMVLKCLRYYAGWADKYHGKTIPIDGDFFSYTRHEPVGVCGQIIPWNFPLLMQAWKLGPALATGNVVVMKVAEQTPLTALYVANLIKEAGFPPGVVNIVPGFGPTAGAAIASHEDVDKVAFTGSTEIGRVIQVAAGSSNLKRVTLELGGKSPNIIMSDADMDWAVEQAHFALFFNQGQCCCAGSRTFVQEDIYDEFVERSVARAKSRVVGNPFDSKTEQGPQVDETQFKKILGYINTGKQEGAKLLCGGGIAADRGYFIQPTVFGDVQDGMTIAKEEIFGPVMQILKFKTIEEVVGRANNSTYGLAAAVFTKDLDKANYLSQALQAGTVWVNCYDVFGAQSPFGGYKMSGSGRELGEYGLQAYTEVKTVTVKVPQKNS
Experimental: (§1) Reagents for plant-derived compounds safrole, isosafrole, piperine, sesamin, capsaicin were purchased from Sigma-Aldrich Chemicals and dihydromethysticin was purchased from AvaChem. Scientific. Piperine related compounds, Alda-101 to Alda-112, were synthesized by standard organic chemistry. All testing compounds were dissolved in dimethyl-sulfoxide (DMSO) to obtain a stock solution of 20 mM. Different recombinant ALDH isozymes with a His-epitope tag at the N-terminus were constructed, cloned and expressed in BL21 E. coli host cells according published methods (Chen et al., 2008 Science 321:1493). The bacteria were subjected to 0.5 mM IPTG induction for protein expression at 30° C. Purification of the recombinant proteins by affinity nickel columns were carried out using a standard protocol according to manufacturer's instructions (Novagen, Wis., USA).
(§2) ALDH enzymatic activity was determined spectrophotometrically using purified recombinant protein (15 ug) in the reductive reaction of NAD^+ to NADH at λ340 nm (Rex et al., 1985, Alcohol Clin Exp Res 9: 147). All the assays in the presence of absence of a testing compound were carried out at 25° C. in […] pyrophosphate buffer, pH=9.5, 2.4 mM NAD+ and 10 mM acetaldehyde or phenylacetaldehyde as a substrate.

[1] = tested on: SCC VII murine squamous cell carcinoma cells; assay: Tumor radiation therapy model; assay type: in vivo, mice; details: topical 200 μl of 3 mM, FIG. 21
Experimental: In order to determine the impact of Alda-1 on the effectiveness of radiation therapy, C57Bl/6J mice were inoculated subcutaneously with SCC VII murine squamous cell carcinoma cells (5×10^5) and exposed to radiation therapy (250cGy/day) in the absence or presence of Alda-1 (200 μl of 3 mM Alda-1 in 95% ethanol) or ethanol (200 μl of 95% ethanol) applied 5 min before and 5 min after radiation. Tumor volume was measured daily until the tumor reached four times its starting size at treatment onset (Ning et al., 2008, Mol Cancer Therapy 7:1569-78).

ALDH3 = target: T2, ALDH3 (Homo sapiens, UniProt P30838); assay: ALDH3 enzymatic activity, spectrophotometric NAD+ to NADH assay; assay type: biochemical; details: acetaldehyde as substrate; FIG. 15
T2 construct: made in house; host or cells: BL21 E. coli
T2 sequence (P30838 1-453): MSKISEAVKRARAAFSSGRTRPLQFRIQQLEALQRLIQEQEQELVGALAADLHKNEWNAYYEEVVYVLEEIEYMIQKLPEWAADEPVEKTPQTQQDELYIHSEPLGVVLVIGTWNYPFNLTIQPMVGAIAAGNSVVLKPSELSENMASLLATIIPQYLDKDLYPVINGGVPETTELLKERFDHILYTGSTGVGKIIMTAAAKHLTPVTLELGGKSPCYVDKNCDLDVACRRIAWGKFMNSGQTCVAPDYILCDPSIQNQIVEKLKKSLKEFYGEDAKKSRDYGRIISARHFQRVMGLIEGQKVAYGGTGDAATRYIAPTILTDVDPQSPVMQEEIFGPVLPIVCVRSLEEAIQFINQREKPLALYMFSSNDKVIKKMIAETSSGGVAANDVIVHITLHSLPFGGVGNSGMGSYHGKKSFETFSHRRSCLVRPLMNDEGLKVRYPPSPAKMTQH
Experimental: as §1, §2

C57Bl/6J mice = assay: Radiation dermatitis model, gamma irradiation of skin; assay type: in vivo
Text: Radiation dermatitis is a painful side effect experienced by human patients undergoing radiotherapy for solid tumors. Radiation dermatitis is believed to be due to acute oxidative injury to the skin, which leads to lipid peroxidation and the accumulation of reactive aldehydes, such as 4-hydrorxynonenal. In this example, Alda-1 is shown to reduce radiation dermatitis by maintaining ALDH activity during exposure to radiation. C57Bl/6J mice were exposed to 6Gy gamma irradiation per day (applied directly to the shaved back area over a period of 5 minutes) in the absence or presence of 200 μl of 3 mM Alda-1 (in 95% ethanol) or […] alone (vehicle control). Alda-1 or ethanol alone was applied topically 5 minutes before and 5 minutes after each radiation treatment for a total of 10 sessions (60 Gy total, 6 Gy/day with a two-day break after 5 sessions). Mice were euthanized and exposed skin was dissected, and either homogenized in Lysis Buffer (for ALDH2 activity assay, FIG. 18) or fixed in 4%-paraformaldehyde (for histological analysis, FIG. 19).

effect of co-incubation on safrole inhibition of ALDH2 (ALDH2 isozyme; safrole 500 uM & 1000 uM, FIG. 17): prevented and reversed
effect of co-incubation on safrole inhibition of ALDH2, 15-minute kinetic measurements (ALDH2 isozyme; safrole 1000 uM, FIG. 18): prevented and reversed
effect on enzymatic activity of ALDH3 isozyme (ALDH3): does not have any effect
Compound: O=C(NCc1ccc2c(c1)OCO2)c1c(Cl)cccc1Cl [Alda-1, N-(1,3-benzodioxol-5-ylmethyl)-2,6-dichlorobenzamide]
sensitivity of the tumor to radiation treatment (tumor growth) ([1]; 250cGy/day, vs ethanol vehicle control): increased significantly the sensitivity of the tumor to radiation treatment
tumor growth in non-irradiated mice ([1]; no radiation, vs ethanol treated mice): no effect on tumor growth
ALDH activity in irradiated skin (C57Bl/6J mice; topical 3 mM in 95% ethanol, 6Gy gamma irradiation, FIG. 19): significantly attenuated the inhibition of ALDH
Epidermal thickening after radiation (C57Bl/6J mice; topical 3 mM, 5 days exposure to 6Gy irradiation, vs vehicle control, FIG. 20): significantly reduced
